Source: US20070275382A1, “Biomarkers for the Efficacy of Somatostatin Analogue Treatment” (priority 2003, published 2007)
*1 amine or outer side, *2 acyl side, *3 side chain or, on linkers, in order; H or OH if unused. Where a SMILES comes first, the peptide text is derived from it. Side-chain parts run from the residue outwards. [ ]: non-standard residue; d: D form. The star is where a group is joined. Ethylenediamine = C(CN[*:2])N[*:1]; Hyp = O=C(O)[CH]1C[CH](O)CN1; Phg = N[CH](C(=O)O)c1ccccc1; CO = O=C([*:1])[*:2]; Bn = c1ccc(C*)cc1

Tested on: Spleen
Experiment: Microarray gene expression profiling (HG-U95A), spleen
Assay type: in vivo, cynomolgus monkeys
Method: Origin of tissue and processing. Male and female cynomolgus monkeys received subcutaneously pasireotide (100 μg/animal/day) or the vehicle for 14 days. On day 15, all animals were sacrificed and tissues for RNA extraction were immediately snap-frozen and kept at −80° C. until processing.
RNA expression profiling was conducted by means of the HG-U95A gene expression probe array (Affymetrix; Santa Clara, Calif. USA), containing more than 12,600 probe sets interrogating primarily full-length human genes and also some control probe sets. The experiment was conducted according to the recommendations of the manufacturer. Briefly, total RNA was obtained by acid guanidinium thiocyanate-phenol-chloroform extraction (Trizol®, Invitrogen Life Technologies, San Diego, Calif. USA) from each frozen tissue section. The total RNA was then purified on an affinity resin (Rneasy®, Qiagen) and quantified. Double stranded cDNA was synthesized with a starting amount of approximately 5 μg full-length total RNA using the Superscript® Choice System (Invitrogen Life Technologies, Carlsbad, Calif. USA) in the presence of a T7-(dT)24 DNA oligonucleotide primer. Following synthesis, the cDNA was purified by phenol/chloroform/isoamyl alcohol extraction and ethanol precipitation. The purified cDNA was then transcribed in vitro using the BioArray® High Yield RNA Transcript Labeling Kit (ENZO, Farmingdale, N.Y. USA) in the presence of biotinylated ribonucleotides form biotin labelled cRNA. The labelled cRNA was then purified on an affinity resin (Rneasy®, Qiagen), quantified and fragmented. An amount of approximately 10 μg labelled cRNA was hybridized for 16 hours at 45° C. to an expression probe array. The array was then washed and stained twice with streptavidin-phycoerythrin (Molecular Probes,) using the GeneChip® Fluidics Workstation 400 (Affymetrix, Santa Clara, Calif. USA). The array was then scanned twice using a confocal laser scanner (GeneArray® Scanner, Agilent, Palo Alto, Calif. USA) resulting in one scanned image. This resulting “.dat-file” was processed using the MAS4 program (Affymetrix) into a “.cel-file”. The “.cel file” was captured and loaded into the Affymetrix GeneChip® Laboratory Information Management System (LIMS). The LIMS database is connected to a UNIX Sun Solaris server through a network filing system that allows for the average intensities for all probes cells (CEL file) to be downloaded into an Oracle database (NPGN). Raw data was converted to expression levels using a “target intensity” of 150. The data were evaluated for quality control and loaded in the GeneSpring® software 4.2.4 (Silicon Genetics, Calif. USA) for analysis.
On the human Affymetrix HGU95Av2 chip, probe sets for individual genes contain 20 oligonucleotide pairs, each composed of a “perfect match” 25-mer and a “mismatch” 25-mer differing from the “perfect” match oligonucleotide at a single base. After probe labelling, hybridization, and laser scanning, the expression level was estimated by averaging the differences in signal intensity measured by oligonucleotide pairs of a given probe (AvgDiff value). The fold changes and directions were calculated for selected genes, from the differences of the AvgDiff values between controls and treated.
To identify genes that were impacted by pasireotide, the dataset was initially filtered to exclude in a first wave of analysis, genes whose values were systematically in the lower expression ranges where the experimental noise is high (at least 80 in a number of experiments corresponding to the smallest number of replicas of any experimental point). In a second round of selection a threshold p-value of 0.05 (based on a t-test) identified differences between treated and control based on a two component error model (Global Error Model) and, whenever possible, with a stepdown correction for multi-hypothesis testing (Benjamini and Hochberg false discovery rate). […]

[1] = ↑ increase, treated vs controls
[2] = ↓ decrease, treated vs controls

For `NCCCCC1NC(=O)C(Cc2c[nH]c3ccccc23)NC(=O)C(c2ccccc2)NC(=O)C2CC(OC(=O)NCCN)CN2C(=O)C(Cc2ccccc2)NC(=O)C(Cc2ccc(OCc3ccccc3)cc2)NC1=O` (stereo not drawn) [Pasireotide, cyclo[4-(NH2—C2H4—NH—CO—O)Pro-Phg-DTrp-Lys-Tyr(4-Bzl)-Phe]] (cyclo(F[Hyp]([CO-Ethylenediamine])[Phg]WKY(Bn)); configuration not given here), the “IGF-1 expression level, AvgDiff (range)” value (0.1 mg/animal/14day) was 85 (52 to 125), the “IGFBP6 expression level, AvgDiff (range)” value (0.1 mg/animal/14day) was 1,043 (853 to 1,155) and the “SSTR2 expression level, AvgDiff (range)” value (0.1 mg/animal/14day) was 93 (87 to 95). The “ATPase, Na+/K+ transporting, β 1 polypeptide RNA expression fold change” value [1] was “polypeptide ↑ x2.5”, the “Arginine vasopressin receptor 1B RNA expression fold change” value [1] was “receptor 1B ↑ x2” and the “Bcl-2 binding component 3 RNA expression fold change” value [1] was “↑ x2.5”. For the same molecule, the “Ca++ channel, voltage-dependent, α 2/δ subunit 1 RNA expression fold change” value [1] was “subunit 1 ↑ x2”, the “Ca++ channel, voltage-dependent, α 2/δ subunit 2 RNA expression fold change” value [1] was “↑ x1.5” and the “Calcium/calmodulin-dependent protein kinase (CaM kinase) II β RNA expression fold change” value [1] was “II β ↑ x2”. The “Calmodulin 1 (phosphorylase kinase, δ) RNA expression fold change” value [1] was “kinase, δ) ↑ x2”, the “Calmodulin 2 (phosphorylase kinase, δ) RNA expression fold change” value [1] was “kinase, δ) ↑ x1.5” and the “Caspase 8, apoptosis-related cysteine protease RNA expression fold change” value [1] was “↑ x2.5”. The “Cdk 2 RNA expression fold change” value [1] was “Cdk 2 ↑ x1.5”, the “Cdk 5, regulatory subunit 1 (p35) RNA expression fold change” value [1] was “↑ x2” and the “Cdk 6 RNA expression fold change” value [1] was “Cdk 6 ↑ x3”. For the same molecule, the “Cyclin D2 RNA expression fold change” value [1] was “Cyclin D2 ↑ x1.5”, the “Death-associated protein RNA expression fold change” value [1] was “↑ x1.5” and the “Follistatin-like 1 RNA expression fold change” value [1] was “↑ x1.5”. The “Gastric inhibitory polypeptide receptor RNA expression fold change” value [1] was “receptor ↑ x2”, the “HGF activator inhibitor precursor RNA expression fold change” value [1] was “↑ x1.5” and the “IFN regulatory factor 2 RNA expression fold change” value [1] was “factor 2 ↑ x3.5”. For the same molecule, the “IFN-inducible RNA-dependent protein kinase RNA expression fold change” value [1] was “↑ x2.5”, the “IFNγ receptor 2 (IFNγ transducer 1) RNA expression fold change” value [1] was “↑ x1.5” and the “IFNγ responsive transcript RNA expression fold change” value [1] was “↑ x2”. For the same molecule, the “IGF-1 RNA expression fold change” value [1] was “IGF-1 ↑ x1.5”, the “IGFBP6 RNA expression fold change” value [1] was “IGFBP6 ↑ x2.5” and the “IL 1 receptor-like 1 RNA expression fold change” value [1] was “↑ x2”. For the same molecule, the “IL-8 receptor type B RNA expression fold change” value [1] was “↑ x1.5”, the “IP-4-phosphatase, type 1, isoform b RNA expression fold change” value [1] was “↑ x2” and the “K+ large conductance Ca++-activated channel, subfamily M, β member 1 RNA expression fold change” value [1] was “↑ x2.5”. The “LTb4 (chemokine receptor-like 1) RNA expression fold change” value [1] was “receptor-like 1) ↑ x3”, the “PDGF, α polypeptide RNA expression fold change” value [1] was “polypeptide ↑ x2.5” and the “PDGFR, α polypeptide RNA expression fold change” value [1] was “polypeptide ↑ x1.5”. The “PI-3-kinase, class 2, β polypeptide RNA expression fold change” value [1] was “↑ x1.5”, the “PI-3-kinase, class 3 RNA expression fold change” value [1] was “class 3 ↑ x2” and the “PKC, α binding protein RNA expression fold change” value [1] was “protein ↑ x2”. The “PLA2 RNA expression fold change” value [1] was “PLA2 ↑ x2”, the “Phosphatidylinositol glycan, class B RNA expression fold change” value [1] was “↑ x1.5” and the “Programmed cell death 10 RNA expression fold change” value [1] was “death 10 ↑ x1.5”. For the same molecule, the “Putative chemokine receptor; GTP-binding protein RNA expression fold change” value [1] was “binding protein ↑ x2.5”, the “Rb binding protein RNA expression fold change” value [1] was “protein ↑ x2” and the “Rb-binding protein 8 RNA expression fold change” value [1] was “protein 8 ↑ x1.5”. The “S-phase kinase-associated protein 1A (p19A) RNA expression fold change” value [1] was 1A (p19A) ↑ x2, the “SSTR2 RNA expression fold change” value [1] was “SSTR2 ↑ x2” and the “Solute carrier family 9 (Na+/H+ exchanger) isoform 3 regulatory factor 1 RNA expression fold change” value [1] was “↑ x10.5”. For the same molecule, the “TGF induced protein RNA expression fold change” value [1] was “protein ↑ x1.5”, the “TNF (cachectin) RNA expression fold change” value [1] was “↑ x2” and the “TNFR superfamily, member 12 RNA expression fold change” value [1] was “member 12 ↑ x1.5”. The “Tumour protein p53-binding protein RNA expression fold change” value [1] was “protein ↑ x1.5”, the “VEGF RNA expression fold change” value [1] was “VEGF ↑ x1.5” and the “Vasodilatator-stimulated phosphoprotein RNA expression fold change” value [1] was “phosphoprotein ↑ x2”. For the same molecule, the “β adrenergic receptor kinase 1 RNA expression fold change” value [1] was “kinase 1 ↑ x3”, the “S-phase kinase-associated protein 1A RNA expression fold change” value (↑ increase, treated vs controls, second listing, without (p19A)) was 1A ↑ x2 and the “Adrenergic, α-2C-, receptor RNA expression fold change” value [2] was “↓ x2”. The “Cyclin I RNA expression fold change” value [2] was “Cyclin I ↓ x1.5”, the “Dopamine receptor D4 RNA expression fold change” value [2] was “receptor D4 ↓ x2” and the “EGF (β-urogastrone) RNA expression fold change” value [2] was “urogastrone) ↓ x2”. For the same molecule, the “K+ voltage-gated channel, shaker-related subfamily, member 3 RNA expression fold change” value [2] was “member 3 ↓ x3”, the “Nuclear factor of activated T-cells, cytoplasmic, calcineurin-dependent 1 RNA expression fold change” value [2] was “dependent 1 ↓ x5” and the “PI-3-kinase, catalytic, α polypeptide RNA expression fold change” value [2] was “polypeptide ↓ x2.5”. For the same molecule, the “PTHR 1 RNA expression fold change” value [2] was “PTHR 1 ↓ x2.5” and the “TGFβ receptor III (betaglycan, 300 kD) RNA expression fold change” value [2] was 300 kD) ↓ x1.5.
